One series can be described thus: clinical. The settings on record: human, in vivo; for AUC: AUCtau, healthy subjects, fed, multiple dose; for AUC / Cmax: plasma, mean (%CV); for Cmax: C max; for half-life: median (first quartile, third quartile).
Series [1] can be described thus: Phase 1 crossover drug-drug interaction study, plasma pharmacokinetics by HPLC-MS/MS, non-compartmental analysis.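 As to all read-outs here: blood sampled at steady state on final dosing day, predose through 24 h after dose, study drug given shortly after standardized breakfast, with isotopically labeled internal standards.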 The settings on record: for effect of coadministered R/F/TAF on exposure (C max, AUC tau): LDV/SOF + R/F/TAF vs LDV/SOF; for effect of coadministered R/F/TAF on exposure (C max, AUC tau) / effect of coadministered LDV/SOF on exposure (C max, AUC tau): result in words; for C tau / AUC(0-t) / Cmax / AUC: mean (%CV); for effect of coadministered LDV/SOF on exposure (C max, AUC tau): LDV/SOF + R/F/TAF vs R/F/TAF; for AUC(0-t) / Cmax / Tmax / AUC / half-life: human; for AUC(0-t): AUClast; for Cmax: C max; for Tmax: T max; for AUC: AUCtau, healthy subjects, fed, multiple dose.
Experimental: (§1) This study was a randomized, open‐label, single‐center, multiple‐dose, 3‐way, 6‐sequence, crossover Phase 1 study in healthy adults under fed conditions (approximately 600 calories, 27% fat). The treatments were LDV/SOF 90/400 mg (Treatment A), R/F/TAF 25/200/25 mg (Treatment B), and LDV/SOF+R/F/TAF (Treatment C).
(§2) Patients were administered the study drug within 5 minutes of completing the standardized breakfast. Serial blood samples for PK assessments were collected on the last day of each dosing sequence at the following time points: predose (≤5 min), 0.25, 0.5, 0.75, 1, 1.5, 2, 3, 4, 4.5, 5, 6, 8, 10, 12, 18, and 24 hours after the administration of the dose. Subjects were restricted from food intake until after the 4‐hour PK blood sampling time point.
(§3) Plasma concentrations of LDV, SOF, GS‐566500, GS‐331007, RPV, FTC, TAF, and TFV were determined by validated high‐performance liquid chromatography/tandem mass spectrometry (HPLC–MS/MS) methods with multiple reaction monitoring and electrospray ionization in the positive mode for LDV, RPV, FTC, TAF, and TFV, and in the negative mode for SOF, GS‐566500, and GS‐331007. Isotopically labeled internal standards (^2H, ^13C, and/or ^15N) were used for each analyte. […] Concentrations below the calibrated ranges of the methods were reported as below the limit of quantitation (BLQ); samples with concentrations above the calibrated ranges of the methods were diluted with blank plasma prior to analysis and the appropriate dilution factor was applied to the result. For each method, the results of within‐run (intra‐assay) and between‐run (inter‐assay) precision assessments were reported as the coefficients of variation, each expressed as a percentage (%CV), and the results of accuracy assessments were reported as the relative error values expressed as percentages (%RE). […] The calibrated ranges of the method were 1–2000 ng/mL for LDV, 5–2500 ng/mL for SOF, 10–5000 ng/mL for GS‐566500 and GS‐331007, 1 to 500 ng/mL for RPV, 5 to 3000 ng/mL for FTC, 1 to 1000 ng/mL for TAF, and 0.3–300 ng/mL for TFV.
(§4) Samples BLQ of bioanalytical assays occurring before the achievement of the first quantifiable concentration were assigned a value of zero to prevent overestimation of the initial area under the plasma concentration–time curve (AUC) and at all other time points were treated as missing data in WinNonlin. For summary statistics, samples BLQ at predose time were zero and postdose time points were assigned one‐half the value of the lower limit of quantitation.
(§5) Pharmacokinetic parameters were estimated using standard non‐compartmental methods in conjunction with the linear/log trapezoidal rule (Phoenix WinNonlin®, version 6.3; Certara USA, Inc., Princeton, NJ).
(§6) The primary endpoints were the PK parameters AUCtau, C max, and C tau of RPV, FTC, LDV, and GS‐331007; AUClast and C max of TAF; AUCtau and C max of SOF and GS‐566500. The secondary endpoints were the PK parameters AUCtau, C max, and C tau of TFV; T max, Clast, and Tlast of RPV, FTC, TAF, TFV, LDV, SOF, GS‐566500, and GS‐331007.
(§7) Plasma concentrations and PK parameters were summarized by treatment using descriptive statistics.

The conditions of series [2]: cited from earlier work.
The conditions of series [3]: in vivo; for C max / T max / t 1/2: human.
Experimental: as §1, §2, §3, §4, §5, §6, §7
On the set-up of series [4]: method as in German et al. 2014. The settings on record: ref German et al. 2014, cited from earlier work.
[5] abbreviates: Test: LDV/SOF + R/F/TAF (N = 42).
Setting [6] is: t 1/2, Reference: LDV/SOF (N = 41).
[7] abbreviates: t 1/2, Test: LDV/SOF + R/F/TAF (N = 42).
[8] abbreviates: Reference: LDV/SOF (N = 41), median (first quartile, third quartile).
[9] abbreviates: Test: LDV/SOF + R/F/TAF (N = 42), plasma.
[10] abbreviates: test LDV/SOF + R/F/TAF vs reference LDV/SOF.
The mark [11] stands for this setting: in vivo, Reference: R/F/TAF (N = 42), plasma.
Where [12] appears, read: in vivo, Test: LDV/SOF + R/F/TAF (N = 42), plasma.
[13] abbreviates: test LDV/SOF + R/F/TAF vs reference R/F/TAF.
[14] abbreviates: Reference: R/F/TAF (N = 42), plasma.
The mark [15] stands for this setting: plasma, oral, Reference: R/F/TAF (N = 42), plasma.
The mark [16] stands for this setting: plasma, oral, Test: LDV/SOF + R/F/TAF (N = 42), plasma.
Where [17] appears, read: plasma, oral, t 1/2, Reference: R/F/TAF (N = 42), median (first quartile, third quartile).
[18] abbreviates: plasma, oral, t 1/2, Test: LDV/SOF + R/F/TAF (N = 42), median (first quartile, third quartile).

Read-outs that look alike come from different tables or passages of the source.

Experimental for clinical: as §1, §2, §3, §4, §5, §6, §7

As to `COC(=O)N[C@H](C(=O)N1CC2(CC2)C[C@H]1c1ncc(-c2ccc3c(c2)C(F)(F)c2cc(-c4ccc5nc([C@@H]6[C@H]7CC[C@H](C7)N6C(=O)[C@@H](NC(=O)OC)C(C)C)[nH]c5c4)ccc2-3)[nH]1)C(C)C` [LDV, ledipasvir], the AUC in “clinical” (Reference: LDV/SOF (N = 41)) turned out to be 11600 ng·h/mL; in the series “clinical” (setting [5]), 11900 ng·h/mL. Moreover, the Cmax in “clinical” (Reference: LDV/SOF (N = 41)) turned out to be 647 ng/mL; in the series “clinical” (setting [5]) it was 658 ng/mL. For the same compound, the half-life in “clinical” (setting [6]) is 32.6 h; in the series “clinical” (setting [7]), 31.3 h. Besides, the “effect of coadministered R/F/TAF on exposure (C max, AUC tau)” value in series [1] was “did not noticeably increase”; in series [1] (listed as ledipasvir), “no relevant effect”. Besides, in series [1] (setting [8]), the T max is reported as 4.5 (4.5, 5.0) h. Moreover, the C tau in series [1] (Reference: LDV/SOF (N = 41), plasma) is given as 420 (46) ng/mL; in series [1] (setting [9]) it was 434 (47) ng/mL. The “GLSM ratio (test/reference) of AUCtau” value in series [1] (setting [10]) was found to be 102%. In series [1] (setting [10]), the “GLSM ratio (test/reference) of C max” value was found to be 101%. For the same compound, in series [1] (setting [10]), the “GLSM ratio (test/reference) of C tau” value was found to be 102%.
On to `CC(C)OC(=O)[C@H](C)N[P@](=O)(CO[C@H](C)Cn1cnc2c(N)ncnc21)Oc1ccccc1` [TAF, tenofovir alafenamide], for which, in series [2] (TAF 25 mg vs TDF 300 mg, reference not given), the “lower plasma tenofovir exposure compared to TDF 300 mg” value was ~ 90%. For the same compound, the “less plasma TFV exposures than TDF” value in series [2] (TAF vs TDF, ref Sax et al. 2015, Zack et al. 2016, Gilead Sciences Inc, 2017b) is reported as 80–90%. The “effect of coadministered LDV/SOF on exposure (C max, AUC tau)” value (from here on “effect of coadministered LDV/SOF”) in series [1] is reported as “no effect”. The “t 1/2” value in series [1] (Reference: R/F/TAF (N = 42), median (first quartile, third quartile)) is 0.5 (0.4, 0.6) h. Besides, in series [1] (setting [11]), the AUC(0-t) was determined as 277 ng·h/mL and the peak level (Cmax) was 200 ng/mL. Also, in series [1] (setting [12]), the AUC(0-t) was 362 ng·h/mL and the highest concentration (Cmax) turned out to be 205 ng/mL. The Tmax in series [1] (in vivo, Reference: R/F/TAF (N = 42), median (first quartile, third quartile)) stood at 1.5 h. Further, in series [1] (in vivo, Test: LDV/SOF + R/F/TAF (N = 42), median (first quartile, third quartile)), the time to peak (Tmax) is 1.8 h. Besides, in series [1] (setting [13]), the “GLSM ratio (test/reference) of AUClast” value came out at 132% and the “GLSM ratio (test/reference) of C max” value was 103%.
As for `C[C@H](NP(=O)(O)OC[C@H]1O[C@@H](n2ccc(=O)[nH]c2=O)[C@](C)(F)[C@@H]1O)C(=O)O` [GS‐566500], in series [3], the C max is given as 510 (20) ng/mL; the T max is on record as 3.0 (2.0, 4.0) h; the “t 1/2” value was 2.2 (2.0, 2.5) h.
Consider `Nc1nc(=O)n([C@@H]2CS[C@H](CO)O2)cc1F` [FTC, emtricitabine], for which the “effect of coadministered LDV/SOF” value in series [1] was “no effect”. The C tau in series [1] (setting [14]) was 88 (28) ng/mL; in series [1] (setting [9]) it was 89 (25) ng/mL. The AUC in series [1] (setting [15]) and in series [1] (setting [16]) was 10800 ng·h/mL in each case. The Cmax is 1710 ng/mL in series [1] (setting [15]) and 1650 ng/mL in series [1] (setting [16]). In addition, the Tmax was found to be 2.5 h in series [1] (plasma, oral, Reference: R/F/TAF (N = 42), median (first quartile, third quartile)) and 3 h in series [1] (plasma, oral, Test: LDV/SOF + R/F/TAF (N = 42), median (first quartile, third quartile)). Moreover, the half-life in series [1] (setting [17]) is 6.5 h; in series [1] (setting [18]), 5.1 h. In series [1] (setting [13]), the “GLSM ratio (test/reference) of AUCtau” value amounted to 100%. In addition, the “GLSM ratio (test/reference) of C max” value in series [1] (setting [13]) amounted to 97%. Besides, the “GLSM ratio (test/reference) of C tau” value in series [1] (setting [13]) is given as 102%.
`C[C@@]1(F)[C@H](O)[C@@H](CO)O[C@H]1n1ccc(=O)[nH]c1=O` [GS‐331007]: in series [3], the C max is 884 (14) ng/mL; the T max is 4.5 (4.0, 4.5) h; the “t 1/2” value is given as 16.7 (13.8, 21.9) h; the C tau is given as 340 (16) ng/mL.
Regarding `Cc1cc(/C=C/C#N)cc(C)c1Nc1ccnc(Nc2ccc(C#N)cc2)n1` [RPV, rilpivirine], in the series “clinical”, the Tmax amounted to 5 h. In addition, the “effect of coadministered LDV/SOF” value in series [1] is given as “no effect”. Moreover, the C tau in series [1] (setting [14]) is 109 (32) ng/mL. Also, the T max in series [1] (Test: LDV/SOF + R/F/TAF (N = 42), median (first quartile, third quartile)) is reported as 4.0 (4.0, 5.0) h. The C tau in series [1] (setting [9]) is 100 (26) ng/mL. In series [1] (setting [15]), this compound had an AUC of 3040 ng·h/mL and a Cmax of 203 ng/mL. Besides, in series [1] (setting [16]), the AUC amounted to 2860 ng·h/mL and the Cmax worked out at 197 ng/mL. Moreover, the half-life in series [1] (setting [17]) is 32.8 h. In addition, in series [1] (setting [18]), the half-life was 30.4 h. For the same compound, in series [1] (setting [13]), the “GLSM ratio (test/reference) of AUCtau” value amounted to 95%, the “GLSM ratio (test/reference) of C max” value is 97% and the “GLSM ratio (test/reference) of C tau” value is on record as 93%.
Regarding `CC(C)OC(=O)[C@H](C)N[P@](=O)(OC[C@H]1O[C@@H](n2ccc(=O)[nH]c2=O)[C@](C)(F)[C@@H]1O)Oc1ccccc1` [SOF, sofosbuvir], the AUC in “clinical” (Reference: LDV/SOF (N = 41)) was determined as 2910 ng·h/mL; in “clinical” (setting [5]), 3070 ng·h/mL. The figures for the maximum concentration (Cmax) in “clinical” (Reference: LDV/SOF (N = 41)) and in “clinical” (setting [5]) were 1470 ng/mL and 1390 ng/mL, respectively. For the same compound, the half-life in the series “clinical” (setting [6]) and in the series “clinical” (setting [7]) was 0.5 h each time. Besides, the “effect of coadministered R/F/TAF on exposure (C max, AUC tau)” value is recorded as “did not noticeably increase” in series [1] and “no relevant effect” in series [1] (listed as sofosbuvir). Moreover, the T max in series [1] (setting [8]) is 2.0 (1.5, 3.0) h. Also, in series [1] (setting [10]), the “GLSM ratio (test/reference) of AUCtau” value was found to be 105%. The “GLSM ratio (test/reference) of C max” value in series [1] (setting [10]) came to 96%.
Take `C[C@H](Cn1cnc2c(N)ncnc21)OCP(=O)(O)O` [TFV, tenofovir]: in series [4] (R/F/TDF coadministered with LDV/SOF compared to R/F/TDF alone), the “increase in TFV exposure” value is 40%. The TFV exposure in series [4] (R/F/TDF coadministered with LDV/SOF) was 4,780 ng·h/mL. Also, the C tau in series [1] (setting [14]) is 9 (25) ng/mL; in series [1] (setting [9]), 17 (22) ng/mL. The AUC in series [1] (setting [15]) came to 268 ng·h/mL; in series [1] (setting [16]), 467 ng·h/mL. Besides, the Cmax in series [1] (setting [15]) was 16 ng/mL; in series [1] (setting [16]), 25 ng/mL. Moreover, the figures for the half-life in series [1] (setting [17]) and in series [1] (setting [18]) were 32 h and 44.5 h, respectively. Further, the “GLSM ratio (test/reference) of AUCtau” value in series [1] (setting [13]) was 175%. Further, the “GLSM ratio (test/reference) of C max” value in series [1] (setting [13]) is given as 162%. The “GLSM ratio (test/reference) of C tau” value in series [1] (setting [13]) turned out to be 185%.

The values above are taken from PMC5625157, “Lack of clinically important PK interaction between coformulated ledipasvir/sofosbuvir and rilpivirine/emtricitabine/tenofovir alafenamide” (Pharmacology Research & Perspectives, 2017).
